Results: patent US6204293A, “Inhibitors of protein isoprenyl transferases” (University of Pittsburgh, priority 1998, dated 2001)
Where a name gives a salt, the structure may show the parent alone.

Molecular target: T1, Rat brain protein farnesyltransferase (Rattus norvegicus, UniProt Q02293+Q04631)
T1 construct: Rat brain protein farnesyltransferase activity is measured; from tissue; host or cells: rat brain
Assay: % inhibition of farnesylation, scintillation proximity assay with biotin-K Ras B fragment
Format: biochemical
Details: Table 2; 1 × 10^-6 M
In short: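 Scintillation proximity read-out of farnesylation, using a biotinylated K Ras B fragment (0.1 mM final) in place of biotin-lamin. Enzyme purified from rat brain; results given as % inhibition.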

T1 sequence (Q02293 whole entry, one chain of several): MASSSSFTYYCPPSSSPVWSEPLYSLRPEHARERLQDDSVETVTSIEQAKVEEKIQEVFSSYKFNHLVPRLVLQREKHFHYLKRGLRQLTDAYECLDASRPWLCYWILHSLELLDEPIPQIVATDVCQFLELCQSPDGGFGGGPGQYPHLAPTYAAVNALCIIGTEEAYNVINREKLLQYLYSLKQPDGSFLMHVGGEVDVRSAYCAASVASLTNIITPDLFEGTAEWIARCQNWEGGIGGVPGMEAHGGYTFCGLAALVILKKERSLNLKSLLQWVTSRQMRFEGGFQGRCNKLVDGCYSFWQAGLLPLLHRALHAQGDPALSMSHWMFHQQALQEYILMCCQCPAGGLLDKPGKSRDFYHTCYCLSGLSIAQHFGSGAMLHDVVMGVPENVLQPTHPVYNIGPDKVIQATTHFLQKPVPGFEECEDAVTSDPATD

% inhibition at 1 × 10^-6 M [%]	SMILES
90	CSCC[C@H](NC(=O)c1ccc(CN2CCC[C@H]2COCc2ccccc2)cc1-c1ccccc1C)C(=O)O [Example 824]
92	CSCC[C@H](NC(=O)c1ccc(CN(Cc2ccco2)C(C)C)cc1-c1ccccc1C)C(=O)O [Example 831]
80	CSCC[C@H](NC(=O)c1ccc(CN(Cc2ccoc2)C(C)C)cc1-c1ccccc1C)C(=O)O [Example 832]
55	CSCC[C@H](NC(=O)c1ccc(CN(Cc2ccccc2)Cc2ccccc2)cc1-c1ccccc1)C(=O)O [Example 834]
96	CSCC[C@H](NC(=O)c1ccc(CN(CCc2ccccc2)C(C)C)cc1-c1ccccc1C)C(=O)O [Example 835]
92	CSCC[C@H](NC(=O)c1ccc(CN(Cc2ccccc2)c2ccccc2C(C)=O)cc1-c1ccccc1C)C(=O)O [Example 844]
85	CSCC[C@H](NC(=O)c1ccc(CN(Cc2ccccc2)c2ccccc2Cl)cc1-c1ccccc1C)C(=O)O [Example 846]

SMILES	% inhibition at 1 × 10^-6 M [%]
CSCC[C@H](NC(=O)c1ccc(CN(Cc2ccccc2)c2ccccc2SC)cc1-c1ccccc1C)C(=O)[O-].[Li+] [Example 850]	90

Same assay, conditions: Table 3; 1 × 10^-7 M

% inhibition at 1 × 10^-7 M [%]	SMILES
63	COc1ccccc1N(Cc1ccccc1)Cc1ccc(C(=O)N[C@@H](CCSC)C(=O)O)c(-c2ccccc2C)c1 [Example 839]
78	CSCC[C@H](NC(=O)c1ccc(/C=C/c2ccc(Oc3ccccc3Cl)cc2)cc1-c1ccccc1C)C(=O)O [Example 854]
92	CSCC[C@H](NC(=O)c1ccc(CCc2ccc(Oc3ccccc3Cl)cc2)cc1-c1ccccc1C)C(=O)O [Example 855]

SMILES	% inhibition at 1 × 10^-7 M [%]
CSCC[C@H](NC(=O)c1ccc(CN(Cc2ccccc2)c2ccccc2[N+](=O)[O-])cc1-c1ccccc1C)C(=O)[O-].[Li+] [Example 849]	66

Same assay, conditions: Table 4; 1 × 10^-8 M

% inhibition at 1 × 10^-8 M [%]	SMILES
95	CSCC[C@H](NC(=O)c1ccc(CN(Cc2ccccc2)c2cncnc2)cc1-c1ccccc1C)C(=O)O [Example 836]
91	CSCC[C@H](NC(=O)c1ccc(CN(Cc2ccc3c(c2)OCO3)c2cncnc2)cc1-c1ccccc1C)C(=O)O [Example 837]
92	CSCC[C@H](NC(=O)c1ccc(CN(Cc2ccc3c(c2)OCO3)c2cnccn2)cc1-c1ccccc1C)C(=O)O [Example 838]
73	COc1ccc(N(Cc2ccccc2)Cc2ccc(C(=O)N[C@@H](CCSC)C(=O)O)c(-c3ccccc3C)c2)cc1 [Example 840]
96	CSCC[C@H](NC(=O)c1ccc(CN(Cc2ccccc2)c2ccc([N+](=O)[O-])cc2)cc1-c1ccccc1C)C(=O)O [Example 843]
85	CSCC[C@H](NC(=O)c1ccc(CN(Cc2ccccc2)c2cccc(C(C)=O)c2)cc1-c1ccccc1C)C(=O)O [Example 845]
85	CSCC[C@H](NC(=O)c1ccc(CN(Cc2ccccc2)c2cccc(Cl)c2)cc1-c1ccccc1C)C(=O)O [Example 847]
87	CSCC[C@H](NC(=O)c1ccc(CN(Cc2ccccc2)c2ccc(Cl)cc2)cc1-c1ccccc1C)C(=O)O [Example 848]
85	CSCC[C@H](NC(=O)c1ccc(CN(Cc2ccccc2)c2ccc(C(F)(F)F)cc2)cc1-c1ccccc1C)C(=O)O [Example 853]

SMILES	% inhibition at 1 × 10^-8 M [%]
CSCC[C@H](NC(=O)c1ccc(CN(Cc2ccccc2)c2cccc([N+](=O)[O-])c2)cc1-c1ccccc1C)C(=O)[O-].[Li+] [Example 842]	88
CSCC[C@H](NC(=O)c1ccc(CN(Cc2ccccc2)c2cccc(SC)c2)cc1-c1ccccc1C)C(=O)[O-].[Li+] [Example 851]	82
CSCC[C@H](NC(=O)c1ccc(CN(Cc2ccccc2)c2ccc(SC)cc2)cc1-c1ccccc1C)C(=O)[O-].[Li+] [Example 852]	79

Same assay, conditions: read-out: % inhibition at 1 × 10^-7 M

SMILES	inhibition at 0.1 µM [%]
CSCC[C@H](NC(=O)c1ccc(COC2CCC(NC(=O)OC(C)(C)C)CC2)cc1-c1ccccc1C)C(=O)O (some centres unmarked) [Example 817, N-[4-(4-t-butoxycarbonylaminocyclohexyloxymethyl)-2-(2-methylphenyl)benzoyl]methionine lithium salt]	60
CCCCC(OCc1ccc(C(=O)N[C@@H](CCSC)C(=O)O)c(-c2ccccc2C)c1)c1ccco1 (some centres unmarked) [Example 825, N-[4-(1-furan-2-ylpentyloxymethyl)-2-(2-methylphenyl)benzoyl]methionine lithium salt]	79

Same assay, conditions: read-out: % inhibition at 1 × 10^-7 M; Table 3; 1 × 10^-7 M

inhibition at 0.1 µM [%]	SMILES
78	CSCC[C@H](NC(=O)c1ccc(COCc2ccc(-c3ccc(Cl)cc3)o2)cc1-c1ccccc1C)C(=O)NS(C)(=O)=O [Example 818, N-[4-(5-(4-chlorophenyl)furan-2-ylmethoxymethyl)-2-(2-methylphenyl)benzoyl]methionine methanesulfonimide]
93	CSCC[C@H](NC(=O)c1ccc(COCC2CCC(c3ccc(Cl)cc3)O2)cc1-c1ccccc1C)C(=O)O (stereo partly drawn) [Example 822, N-[4-(5-syn(4chlorophenyl)tetrahydrofuran-2-ylmethoxymethyl)-2-(2-methylphenyl)benzoyl]methionine lithium salt]

Same assay, conditions: read-out: % inhibition at 1 × 10^-8 M

SMILES	inhibition at 0.01 µM [%]
CSCC[C@H](NC(=O)c1ccc(COCc2ccc(-c3ccc(C(C)C)cc3)o2)cc1-c1ccccc1C)C(=O)O [Example 820, N-[4-(5-(4-isopropylphenyl)furan-2-ylmethoxymethyl)-2-(2-methylphenyl)benzoyl]methionine lithium salt]	66
CCCCC(OCc1ccc(C(=O)N[C@@H](CCSC)C(=O)O)c(-c2ccccc2C)c1)c1ccc(-c2ccc(Cl)cc2)o1 (some centres unmarked) [Example 826, N-[4-(1-(5-(4-chlorophenyl)furan-2-yl)pentyloxymethyl)-2-(2-methylphenyl)benzoyl]methionine lithium salt]	92
CSCC[C@H](NC(=O)c1ccc(COCc2occc2-c2ccc(Cl)cc2)cc1-c1ccccc1C)C(=O)O [Example 827, N-[4-(3-(4-chlorophenyl)furan-2-ylmethoxymethyl)-2-(2-methylphenyl)benzoyl]methionine lithium salt]	77
CSCC[C@H](NC(=O)c1ccc(COC(Cc2ccccc2)c2cncs2)cc1-c1ccccc1C)C(=O)O (some centres unmarked) [Example 828, N-[4-(1-thiazol-5-yl-2-phenylethoxymethyl)-2-(2-methylphenyl)benzoyl]methionine lithium salt]	87
CSCC[C@H](NC(=O)c1ccc(COCc2oc(-c3ccc(Cl)cc3)c(Cl)c2Cl)cc1-c1ccccc1C)C(=O)O [Example 829, N-[4-(3,4-dichloro-5-(4-chlorophenyl)furan-2-ylmethoxymethyl)-2-(2-methylphenyl)benzoyl]methionine lithium salt]	92

Same assay, conditions: read-out: % inhibition at 1 × 10^-8 M; Table 4; 1 × 10^-8 M

inhibition at 0.01 µM [%]	SMILES
76	CSCC[C@H](NC(=O)c1ccc(COCc2ccc(-c3ccc(Cl)cc3)o2)cc1-c1ccccc1C)C(=O)NS(=O)(=O)c1ccccc1 [Example 819, N-[4-(5-(4-chlorophenyl)furan-2-ylmethoxymethyl)-2-(2-methylphenyl)benzoyl]methionine benzenesulfonimide]
75	CSCC[C@H](NC(=O)c1ccc(COCc2ccc(-c3ccc(N(C)C)cc3)o2)cc1-c1ccccc1C)C(=O)O [Example 821, N-[4-(5-(4-N,N-dimethylaminophenyl)furan-2-ylmethoxymethyl)-2-(2-methylphenyl)benzoyl]methionine lithium salt]
